The values below come from ChEMBL document CHEMBL1201862, “PubChem BioAssay data set” (2004).

Among the test systems are ACHN; CAKI-1; COLO 205; DU-145; HL-60; HOP-62; IGROV-1; LOX IMVI; M14; MCF7; NCI-H23; NCI-H460; NCI/ADR-RES; OVCAR-8; SF-295; SK-MEL-2; SW-620; TK-10; UACC-257.
Assay in all cases: NCI-60 cell line screen, 48 h

Several values for one entry are separate records, joined by “and”; a condition that tells them apart may be missing. Identical values can stand only once.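 The compound was tested at five concentrations on cells cultured in 96-well plates, with a 48-hour exposure period. The concentration for 50% growth inhibition is given as GI50.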 Activity calls are given as the source filed them. No stated cut-off is given here; in the data, active = GI50 up to about 1.1 µM and inactive = higher.

On to `COC(=O)C1CCC(=O)N1C(c1ccc(OC)cc1)c1cc(OC)c(OC)c(OC)c1` (stereo not given), for which the GI50 in the assay on ACHN is 0.52 µM (active); in the assay on CAKI-1, 0.313 µM (active); in the assay with COLO 205, 0.292 µM (active); with DU-145, 0.306 µM (active); in the assay on HL-60 it was 0.245 µM (active); in the assay on HOP-62 it was 0.378 µM (active). The GI50 with IGROV-1 is 0.274 µM (active); in the assay on LOX IMVI it was 0.356 µM (active); with M14, 0.322 µM (active); in the assay with MCF7 it was 0.307 µM (active); in the assay with NCI-H23 it was 0.553 µM (active); in the assay on NCI-H460, 0.33 µM (active). In addition, the GI50 with NCI/ADR-RES was 0.258 µM (active); in the assay on OVCAR-8, 0.348 µM (active); with SF-295, 0.0762 µM (active); in the assay on SK-MEL-2 it was 0.649 µM (active); with SW-620, 0.384 µM (active); in the assay on TK-10 it was > 37.8 µM (inactive).

Consider `CC(=O)OC1OC(C2c3cccc(O)c3C(=O)c3c(O)cc(CO)cc32)C(O)C(O)C1O` (stereo not given), for which the GI50 in the assay on CAKI-1 is 2.78 µM (inactive) and 2.23 µM (inactive); with DU-145, 4.55 µM (inactive) and 4.88 µM (inactive); in the assay on HL-60, 2.32 µM (inactive) and 2 µM (inactive); with IGROV-1 it was 4.14 µM (inactive) and 3.87 µM (inactive); with LOX IMVI, 2.87 µM (inactive) and 3.03 µM (inactive); in the assay on M14 it was 10.5 µM (inactive) and 9.42 µM (inactive). In addition, the GI50 in the assay with MCF7 is 5.04 µM (inactive) and 4.75 µM (inactive); with NCI-H23 it was 3.08 µM (inactive) and 3.33 µM (inactive); with NCI-H460, 3.43 µM (inactive) and 3.48 µM (inactive); in the assay on NCI/ADR-RES, 3.88 µM (inactive) and 2.93 µM (inactive); with OVCAR-8, 4.31 µM (inactive) and 3.61 µM (inactive); in the assay on SF-295 it was 2.72 µM (inactive) and 3.62 µM (inactive). Besides, the GI50 with SK-MEL-2 was 2.32 µM (inactive) and 2.74 µM (inactive); in the assay with SW-620, 3.66 µM (inactive) and 3.03 µM (inactive); in the assay on TK-10, 5.69 µM (inactive) and 5.81 µM (inactive); in the assay with UACC-257, 6.47 µM (inactive) and 7.45 µM (inactive).

As to `CN(c1ccccc1)S(=O)(=O)c1ccc([N+](=O)[O-])cc1`, the GI50 is > 100 µM (inactive) in the assay on ACHN; > 100 µM (inactive) in the assay on CAKI-1; > 100 µM (inactive) with COLO 205; > 100 µM (inactive) with DU-145; 57 µM (inactive) with HL-60; > 100 µM (inactive) in the assay on HOP-62. Also, the GI50 is > 100 µM (inactive) with LOX IMVI; 55.7 µM (inactive) in the assay with M14; > 100 µM (inactive) in the assay with MCF7; 83.4 µM (inactive) in the assay with NCI-H23; > 100 µM (inactive) in the assay on NCI-H460; 95.1 µM (inactive) with NCI/ADR-RES. The GI50 in the assay on OVCAR-8 is > 100 µM (inactive); with SF-295, > 100 µM (inactive); with SK-MEL-2, > 100 µM (inactive); with SW-620, > 100 µM (inactive); in the assay with TK-10, > 100 µM (inactive); in the assay on UACC-257 it was 92.5 µM (inactive).

`O=C1N2CCc3c([nH]c4ccccc34)C23CC2CCCC12S3` (stereo not given): the GI50 is 37.3 µM (inactive) with ACHN; > 50 µM (inactive) in the assay on CAKI-1; 26.7 µM (inactive) with COLO 205; 39.4 µM (inactive) with DU-145; > 50 µM (inactive) in the assay on HL-60; > 50 µM (inactive) with HOP-62. Moreover, the GI50 with IGROV-1 was 24.8 µM (inactive); in the assay with LOX IMVI, 34.2 µM (inactive); in the assay with M14 it was > 50 µM (inactive); in the assay on MCF7, 18.7 µM (inactive); in the assay with NCI-H23, 20.1 µM (inactive); with NCI/ADR-RES it was 10.7 µM (inactive). Besides, the GI50 in the assay with OVCAR-8 was 28.8 µM (inactive); with SF-295, 20.3 µM (inactive); in the assay on SK-MEL-2 it was > 50 µM (inactive); in the assay on SW-620 it was > 50 µM (inactive); with TK-10, > 50 µM (inactive); in the assay with UACC-257 it was 18.2 µM (inactive).

With `O=C1c2ccccc2C(=O)c2c(NCC(O)CO)ccc(NCC(O)CO)c21` (stereo not given), the GI50 in the assay on ACHN was 40.5 µM (inactive); in the assay with CAKI-1, 56.6 µM (inactive); in the assay on COLO 205, 37.2 µM (inactive); in the assay on DU-145, 38.6 µM (inactive); with HL-60 it was 63 µM (inactive); in the assay with HOP-62 it was 61.1 µM (inactive). Moreover, the GI50 with IGROV-1 was 49.4 µM (inactive); in the assay with LOX IMVI it was 28.3 µM (inactive); with MCF7, 21.3 µM (inactive); in the assay with NCI-H23, 96.2 µM (inactive); with NCI-H460 it was 61 µM (inactive); with NCI/ADR-RES it was > 100 µM (inactive). Besides, the GI50 in the assay on OVCAR-8 was 69.2 µM (inactive); with SK-MEL-2, 24.4 µM (inactive); with SW-620 it was 45.9 µM (inactive); with TK-10, 72.4 µM (inactive); in the assay with UACC-257 it was > 100 µM (inactive).

For the molecule `NC(=O)N/N=C(\Cc1nc2ccc(Cl)cc2nc1O)C(=O)Nc1ccc(Cl)cc1Cl`, the GI50 is > 100 µM (inactive) with ACHN; > 100 µM (inactive) in the assay with CAKI-1; > 100 µM (inactive) with COLO 205; > 100 µM (inactive) in the assay on DU-145; > 100 µM (inactive) in the assay on HL-60; 81.5 µM (inactive) in the assay on IGROV-1. In addition, the GI50 in the assay with LOX IMVI, in the assay on M14, with MCF7, in the assay on NCI-H23, in the assay with NCI-H460 and with NCI/ADR-RES was > 100 µM (inactive) throughout. Further, the GI50 in the assay on OVCAR-8, in the assay with SF-295, in the assay on SK-MEL-2, with SW-620, in the assay with TK-10 and in the assay on UACC-257 was > 100 µM (inactive) each time.

As for `Nc1nc(Cl)cc(NCC2CC(O)(CO)C2)n1` (stereo not given), the GI50 with ACHN, in the assay on CAKI-1, with COLO 205, in the assay on DU-145, in the assay with HL-60 and in the assay on HOP-62 was > 100 µM (inactive) each time. In addition, the GI50 with IGROV-1, in the assay on LOX IMVI, in the assay on MCF7, in the assay on NCI-H23, in the assay on NCI-H460 and in the assay with NCI/ADR-RES was > 100 µM (inactive) in each case. Also, the GI50 in the assay on OVCAR-8, with SF-295, with SK-MEL-2, with SW-620, in the assay with TK-10 and in the assay with UACC-257 was > 100 µM (inactive) in each case.

As for `CC(C)OP(=O)(OC(C)C)C(C(F)(F)F)C(F)(F)F`, the GI50 in the assay on ACHN, in the assay on CAKI-1, in the assay with COLO 205, with DU-145, with HL-60 and with HOP-62 was > 100 µM (inactive) each time. The GI50 in the assay with IGROV-1, with LOX IMVI, with M14, in the assay with MCF7, with NCI-H23 and in the assay with NCI/ADR-RES was > 100 µM (inactive) throughout. Besides, the GI50 in the assay on OVCAR-8, in the assay on SF-295, in the assay with SK-MEL-2, with SW-620, in the assay on TK-10 and with UACC-257 was > 100 µM (inactive) each time.

As for `CC(C)(C)C1CCC(=O)/C(=C/CC2CC(=O)N(c3ccccc3)C(=O)C2)C1` (stereo not given), the GI50 in the assay on ACHN was 19.9 µM (inactive); in the assay with CAKI-1 it was 20.9 µM (inactive); with COLO 205 it was 20.8 µM (inactive); with DU-145, 19.2 µM (inactive); with HL-60 it was 26.8 µM (inactive); in the assay with HOP-62 it was 30.2 µM (inactive). Further, the GI50 is 19.7 µM (inactive) with IGROV-1; 13.7 µM (inactive) in the assay on LOX IMVI; 19.3 µM (inactive) in the assay on MCF7; 17.8 µM (inactive) in the assay on NCI-H23; 16.6 µM (inactive) with NCI-H460; 17.8 µM (inactive) in the assay with NCI/ADR-RES. Further, the GI50 in the assay with OVCAR-8 was 19.8 µM (inactive); with SF-295 it was 47.8 µM (inactive); in the assay on SK-MEL-2 it was 19.4 µM (inactive); in the assay on SW-620 it was 23.4 µM (inactive); in the assay on TK-10, 17.5 µM (inactive); in the assay on UACC-257, 14.7 µM (inactive).

Consider `CCOC(=O)C(Cc1ccc2c(c1)CCC2)(Cc1ccc2c(c1)CCC2)C(=O)OCC`, for which the GI50 was > 100 µM (inactive) in the assay on ACHN; > 100 µM (inactive) in the assay on CAKI-1; > 100 µM (inactive) with DU-145; 31.5 µM (inactive) in the assay on HL-60; > 100 µM (inactive) in the assay on HOP-62; > 100 µM (inactive) in the assay on IGROV-1. The GI50 in the assay with LOX IMVI was 71.1 µM (inactive); in the assay with M14, 96.2 µM (inactive); in the assay with MCF7 it was 52.6 µM (inactive); in the assay with NCI-H23, 98.4 µM (inactive); in the assay on NCI-H460, 51.3 µM (inactive); in the assay on NCI/ADR-RES, > 100 µM (inactive). For the same molecule, the GI50 with OVCAR-8 is > 100 µM (inactive); in the assay with SF-295 it was 80.7 µM (inactive); in the assay on SK-MEL-2, 35.6 µM (inactive); in the assay with SW-620, > 100 µM (inactive); in the assay with TK-10, > 100 µM (inactive); with UACC-257 it was 34.7 µM (inactive).

As for `O=C(c1cc(Cl)cc(Cl)c1)N(Cc1cccnc1)C(=S)N(Cc1cccnc1)C(=O)c1cc(Cl)cc(Cl)c1`, the GI50 with ACHN was 22.5 µM (inactive); with CAKI-1, 41.3 µM (inactive); in the assay with COLO 205, 15.3 µM (inactive); in the assay with DU-145, 41.8 µM (inactive); in the assay on HL-60, 25.3 µM (inactive); in the assay on HOP-62 it was 29.9 µM (inactive). In addition, the GI50 was 34.1 µM (inactive) with LOX IMVI; 26.4 µM (inactive) in the assay with M14; 5.69 µM (inactive) with MCF7; 63.1 µM (inactive) in the assay on NCI-H23; 64.3 µM (inactive) with NCI-H460; 37.4 µM (inactive) with NCI/ADR-RES. Moreover, the GI50 with OVCAR-8 was 28.8 µM (inactive); with SF-295, 55.5 µM (inactive); in the assay on SK-MEL-2 it was 31.7 µM (inactive); with SW-620, 27.9 µM (inactive); in the assay with TK-10 it was 31.3 µM (inactive); in the assay with UACC-257, 33 µM (inactive).
